Patent publication US3956336A, “9-Alkoxy-5-methyl-6,7-benzomorphans” (Bristol-Myers Company, priority 1975, dated 1976)

Experiments:
Assay type in all cases: in vivo
[1] = system: analgesic effect induced by morphine; assay: animal or person; settings: subcutaneous, morphine 15 mg./kg. sc., 50 percent reduction of analgesic effect, as free base; for ED50: rat, read-out: ED50 Antagonist Activity, Morphine Antagonism Rat Tail Flick
Procedure: (§1) In vivo testing was conducted on various compounds of the instant invention in the form of their respective soluble salts to determine their agonist and/or antagonist properties. The figures reported are the number of milligrams/kilogram of body weight of compound that produced an agonist or antagonist effect in 50% of the mice and rats so tested (ED50). All data is obtained by subcutaneous administration.
(15 mg./kg. sc.) as measured by the rat tail flick procedure (Harris, L.
S. and Pierson, A. K., J. Pharmacol. & Expt. Therap., 143, 141; 1964).

[2] = system: phenylquinone induced writhing; assay: Phenylquinone writhing, agonist activity, mouse; settings: subcutaneous, 50 percent reduction in number of writhing, as free base; for ED50: sc
Procedure: as §1
(§2) ^1 A 50 percent reduction in number of phenylquinone induced writhing
(§3) (Siegmund, E. A. et al., Proc. Soc. Biol. & Med. 95, 729; 1957).

[3] = system: Straub Tail induced by oxymorphone; assay: Antagonism of oxymorphone-induced Straub Tail; settings: mice, subcutaneous, oxymorphone 2 mg./kg. sc., as free base; for ED50: Mus musculus, read-out: ED50 Antagonist Activity, Oxymorphone Straub Tail
Procedure: as §1
^2 Antagonism of Straub Tail induced by oxymorphone (2 mg./kg. sc.) i

[4] = system: righting reflex loss induced by oxymorphone; assay: animal or person; settings: rats, subcutaneous, oxymorphone 1.5 mg./kg. sc., as free base; for ED50: Rattus norvegicus, read-out: ED50 Antagonist Activity, Oxymorphone Narcosis
Procedure: as §1
^3 Antagonism of righting reflex loss induced by oxymorphone (1.5
mg./kg. sc.) in 50 percent of rats.

[5] = system: phenylquinone induced writhing; assay: Phenylquinone writhing, agonist activity, rat; settings: subcutaneous, 50 percent reduction in number of writhing, as free base
Procedure: as §1, §2, §3

Row | SMILES | ED50 [1] | ED50 [2] | ED50 [3] | other results
1 | CCCC12CCN(CC3CC3)C(Cc3ccc(O)cc31)C2OC (racemic) [dl-XIIn, 2-cyclopropylmethyl-2'-hydroxy-9α-methoxy-5-propyl-6,7-benzomorphan] | 0.033 mg/kg | 0.2 mg/kg |  | 
2 | COC1(C)C2Cc3ccc(O)cc3C1(C)CCN2CC1CCC1 (racemic) [dl-XIIv, 2-Cyclobutylmethyl-5,9β-dimethyl-2'-hydroxy-9β-methoxy-6,7-benzomorphan] |  |  |  | ED50 Antagonist Activity, Oxymorphone Straub Tail [3]: 7.5 mg/kg; ED50 Agonist Activity, Phenylquinone Writhing, Mouse [2]: 0.19 mg/kg
3 | CO[C@H]1[C@H]2Cc3ccc(O)cc3[C@]1(C)CCN2CC1CC1 (relative stereo) [dl-XIIa, 2-Cyclopropylmethyl-2'-hydroxy-9α-methoxy-5-methyl-6,7-benzomorphan] | 0.06 mg/kg | 0.087 mg/kg | 0.24 mg/kg | ED50 [4]: 0.04 mg/kg; ED50 ([5]; sc): 0.034 mg/kg
4 | CO[C@@]1(C)[C@H]2Cc3ccc(O)cc3[C@]1(C)CCN2CC1CC1 (relative stereo) [dl-XIIb, 2-Cyclopropylmethyl-5,9β-dimethyl-2'-hydroxy-9α-methoxy-6,7-benzomorphan] | 0.011 mg/kg | 1.25 mg/kg | 0.16 mg/kg | ED50 [4]: ~0.017 mg/kg
5 | CO[C@@]1(C)[C@H]2Cc3ccc(O)cc3[C@]1(C)CCN2CC1CCC1 (relative stereo) [dl-XIIc, 2-Cyclobutylmethyl-5,9β-dimethyl-2'-hydroxy-9α-methoxy-6,7-benzomorphan] |  | 2.18 mg/kg | 1.25 mg/kg | 
6 | CCO[C@H]1[C@H]2Cc3ccc(O)cc3[C@]1(C)CCN2CC1CC1 (relative stereo) [dl-XIId, 2-Cyclopropylmethyl-9α-ethoxy-2'-hydroxy-5-methyl-6,7-benzomorphan] | 0.029 mg/kg | 0.33 mg/kg | 0.32 mg/kg | 
7 | C=CCO[C@H]1[C@H]2Cc3ccc(O)cc3[C@]1(C)CCN2CC1CC1 (relative stereo) [dl-XIIe, 9α-Allyloxy-2-cyclopropylmethyl-2'-hydroxy-5-methyl-6,7-benzomorphan] |  | 5.3 mg/kg | ~0.63 mg/kg | 
8 | C=CC[C@]12CCN(CC3CC3)[C@H](Cc3ccc(O)cc31)[C@@H]2OC (relative stereo) [dl-XIIm, 5-Allyl-2-cyclopropylmethyl-2'-hydroxy-9α-methoxy-6,7-benzomorphan] | 0.046 mg/kg | 0.026 mg/kg |  | 
9 | CO[C@]1(C)[C@H]2Cc3ccc(O)cc3[C@]1(C)CCN2CC1CC1 (relative stereo) [dl-XIIr, 2-Cyclopropylmethyl-5,9α-dimethyl-2'-hydroxy-9β-methoxy-6,7-benzomorphan] |  | 1.8 mg/kg | 3.5 mg/kg | 
10 | CO[C@@H]1[C@H]2Cc3ccc(O)cc3[C@]1(C)CCN2CC1CC1 (relative stereo) [dl-XIIt, 2-Cyclopropylmethyl-2'-hydroxy-9β-methoxy-5-methyl-6,7-benzomorphan] | 0.18 mg/kg | ~20 mg/kg | ~7 mg/kg | 
11 | COC1C2Cc3ccc(O)cc3C1(C)CCN2CC1CC1 (single isomer, unassigned; (-)) [l-XIIa, (-)-2-Cyclopropylmethyl-2'-hydroxy-9α-methoxy-5-methyl-6,7-benzomorphan] |  |  |  | ED50 Antagonist Activity, Oxymorphone Narcosis [4]: 0.017 mg/kg; ED50 Agonist Activity, Phenylquinone Writhing, Rat [5]: 0.021 mg/kg; ED50 Antagonist Activity, Morphine Antagonism Rat Tail Flick [1]: 0.019 mg/kg; ED50 Antagonist Activity, Oxymorphone Straub Tail [3]: 0.10 mg/kg; ED50 Agonist Activity, Phenylquinone Writhing, Mouse [2]: 0.053 mg/kg
12 | CC(C)=CCN1CCC2(C)c3cc(O)ccc3CC1C2C (stereo not drawn) [Pentazocine, reference compound] |  |  |  | ED50 [4]: 10.1 mg/kg
